Measurements published in US6686343B1, “Triazolopurine derivatives, pharmaceutical compositions containing the derivatives, and adenosine A3 receptor affinitive agents” (Otsuka Pharmaceutical Factory, Inc., priority 1999, dated 2004).

| Compound | melting point |
| --- | --- |
| CSCCc1nc2nc[nH]c2c2nc(-c3ccc(C(C)(C)C)cc3)nn12 [Example 17, 8-(4-t-butylphenyl)-5-(2-methylthioethyl)-1H-1,2,4-triazolo[5,1-i]purine] | 229 to 231 °C |
| CCSCc1nc2nc[nH]c2c2nc(-c3ccc(-c4ccccc4)cc3)nn12 [Example 49, 8-(4-biphenylyl)-5-ethylthiomethyl-1H-1,2,4-triazolo[5,1-i]purine] | 264 to 266 °C |
| CCCOc1ccc(-c2nc3c4[nH]cnc4nc(COC)n3n2)cc1 [Example 9, 5-methoxymethyl-8-(4-n-propoxyphenyl)-1H-1,2,4-triazolo[5,1-i]purine] | ≥ 280 °C |
| CCOP(=O)(Cc1nc2nc[nH]c2c2nc(-c3ccc(-c4ccccc4)cc3)nn12)OCC | 188 to 192 °C |
| CS(=O)(=O)CCc1nc2nc[nH]c2c2nc(-c3ccc(C(F)(F)F)cc3)nn12 [Example 44, 5-(2-methylsulfonylethyl)-8-(4-trifluoromethylphenyl)-1H-1,2,4-triazolo[5,1-i]purine] | ≥ 261 °C (dec.) |
| CC(C)(C)c1ccc(-c2nc3c4[nH]cnc4nc(CCCC(=O)O)n3n2)cc1 [Example 35, 8-(4-t-butylphenyl)-5-(3-carboxypropyl)-1H-1,2,4-triazolo[5,1-i]purine] | ≥ 280 °C |
| CCOP(=O)(O)Cc1nc2nc[nH]c2c2nc(-c3ccc(C(F)(F)F)cc3)nn12 | 268 to 270 °C |
| CCOP(=O)(Cc1nc2nc[nH]c2c2nc(-c3ccc(C(F)(F)F)cc3)nn12)OCC | 196 to 198 °C |
| c1ccc(COCCCCc2nc3nc[nH]c3c3nc(-c4ccc(-c5ccccc5)cc4)nn23)cc1 [Example 57, 5-(4-benzyloxybutyl)-8-(4-biphenylyl)-1H-1,2,4-triazolo[5,1-i]purine] | 205 to 207 °C |
| COC(=O)CCCc1nc2nc[nH]c2c2nc(-c3ccc(Cl)cc3)nn12 [Example 30, 8-(4-chlorophenyl)-5-(3-methoxycarbonylpropyl)-1H-1,2,4-triazolo[5,1-i]purine] | 261 to 262.5 °C |
| CCOP(=O)(O)Cc1nc2nc[nH]c2c2nc(-c3ccc(-c4ccccc4)cc3)nn12 | 274 to 277 °C |
| COCc1nc2nc[nH]c2c2nc(-c3ccc(C(F)(F)F)cc3)nn12 [Example 24, 5-methoxymethyl-8-(4-trifluoromethylphenyl)-1H-1,2,4-triazolo[5,1-i]purine] | ≥ 280 °C |
| CCOC(=O)CCc1nc2nc[nH]c2c2nc(-c3ccc(-c4ccccc4)cc3)nn12 [Example 20, 8-(4-biphenylyl)-5-(2-ethoxycarbonylethyl)-1H-1,2,4-triazolo[5,1-i]purine] | 241.5 to 244 °C |
| CCCOc1ccc(-c2nc3c4[nH]cnc4nc(CCOC)n3n2)cc1 [Example 10, 5-(2-methoxyethyl)-8-(4-n-propoxyphenyl)-1H-1,2,4-triazolo[5,1-i]purine] | 231.5 to 232.5 °C |
| CN(C)Cc1nc2nc[nH]c2c2nc(-c3ccc(-c4ccccc4)cc3)nn12 [Example 54, 8-(4-biphenylyl)-5-dimethylaminomethyl-1H-1,2,4-triazolo[5,1-i]purine] | 284 to 286 °C (dec.) |
| CSCCc1nc2nc[nH]c2c2nc(-c3ccc(C(F)(F)F)cc3)nn12 [Example 27, 5-(2-methylthioethyl)-8-(4-trifluoromethylphenyl)-1H-1,2,4-triazolo[5,1-i]purine] | ≥ 255 °C (dec.) |
| CS(=O)(=O)CCc1nc2nc[nH]c2c2nc(-c3ccc(Cl)cc3)nn12 [Example 42, 8-(4-chlorophenyl)-5-(2-methylsulfonylethyl)-1H-1,2,4-triazolo[5,1-i]purine] | ≥ 244 °C (dec.) |
| FC(F)(F)c1nc2nc[nH]c2c2nc(-c3ccc(-c4ccccc4)cc3)nn12 [Example 47, 8-(4-biphenylyl)-5-trifluoromethyl-1H-1,2,4-triazolo[5,1-i]purine] | ≥ 280 °C |
| CCOP(=O)(Cc1nc2nc[nH]c2c2nc(-c3ccc(C(C)(C)C)cc3)nn12)OCC | 162 to 166 °C |
